# Test results taken from paper PMC4995014, “Identification of ABC Transporter Interaction of a Novel Cyanoquinoline Radiotracer and Implications for Tumour Imaging by Positron Emission Tomography” (PLoS ONE, 2016).
# Assays:
# Caco2 transwell assay = format: in vitro ADME, human; conditions: human, Caco-2, no inhibitor; 10 μM cyanoquinoline or 50 μM vinblastine, 120 min; read-out: efflux ratio (Papp B-A / Papp A-B)
# Procedure: (§1) The caco2 transwell assay was performed to assess permeability. Cells were seeded at a density of 60,000 cells per well in 24 well transwell plates (Millipore, Billerica, Massachutsetts, USA), and maintained in DMEM supplemented with […] glucose (20% FBS, 1% penicillin/streptomycin, 1% glutamine) for 21 days at 37°C in 5% CO2. After 21 days the cells differentiate into enterocytes and express all three MDR proteins, ABCB1 and ABCG2 at the apical side and ABCC1 on the basal side. On day 21, cells were washed three times with Hank's Balanced Salt Solution (HBSS) (Fisher scientific, Loughborough, UK) and the trans-epithelial electric resistance (TERR) was measured using an Epithelial Voltohmmeter (EVOM) (World Precision Instruments, Sarasota, USA); only transwells with TERR of 400 Ω/cm^2 or above were used for the experiment. Cells were treated either at the apical (n = 3) or basal (n = 3) side of the transwell by addition of 10 μM of cyanoquinoline compound or 50 μM vinblastine prepared in a volume of 400 μL HBSS (compound added to apical well) or 800 μL of HBSS (added to basal well). When transport inhibitors FTC (10 μM) or zosuquidar (0.3 μM) were used, they were added to both the apical and basal wells 1 h prior to drug treatment. After 1 h pre-treatment the medium was removed and cells were treated with the compounds prepared in HBSS containing FTC or Zosuquidar.
# (§2) Plates were incubated in shaker incubator at 37°C and 60 rpm for 120 min. After incubation, 200 μL aliquots from the apical and the basal wells were collected and analysed using high performance liquid chromatography (HPLC). Samples were run on a Millipore Waters HPLC system which included a 717 plus autosampler and 2487 dual wavelength absorbance detector system. The stationary phase comprised of a Phenomenex Luna C18 reverse phase column (150 X 4.6 mm; 5 μm particle size). The mobile phase comprised water (0.1% TFA) and acetonitrile (0.1% TFA) (80:20 v/v) at a flow rate of 1 mL/min for all compounds except vinblastine. For vinblastine, the stationary phase comprised a Supelcosil LC-ABZ reverse phase column (5 × 4.6 mm; 5 μm particle size). The mobile phase comprised water (0.1% formic acid) and methanol (90:10 to 10:90 v/v gradient over 20 min). Peak areas corresponding to the compounds of interest were recorded. Using standard curves the areas under the curve were converted into concentrations of compound. The permeability coefficient (Papp) was calculated using the following equation [30]: Papp = (dQ/dt)/A C0, where A is the surface area of the transwell membrane in cm^2 (= 0.33 cm^2), C0 is the drug concentration in the donor chamber at time t = 0 and dQ/dt is the rate of transfer of the compound to the receiver chamber, determined from the slope of the graph concentration (dQ) versus time (dt). Papp values corresponding to absorption and secretion were assessed and used to calculate efflux ratio. Efflux ratio =(Papp B−A)/(Papp A−B) Where Papp A-B = Papp absorption and Papp B-A = Papp secretion.
# (§3) The integrity of the caco2 cell membrane was assessed for each well following the experiment by addition of a 100 μM solution of […] (Sigma) in HBSS to the apical side of the plate. The plates were placed in the shaker incubator for 1 h at 37°C and 60 rpm. Samples from the basal wells were transferred into a 96 well plate and the levels of […] were assessed by measuring with an excitation of 450 nm and an emission of 540 nm using the PerkinElmer Wallac 1420 counter.
# caco2 cells = experiment: Caco2 transwell assay; format: in vitro ADME, human; conditions: pre-treatment with zosuquidar
# Procedure: as §1, §2, §3
# [1] = target: T1, EGFR Del E746-A750 (PC9 cells) (Homo sapiens, UniProt P00533, DEL746-750); experiment: Inhibition of EGFR autophosphorylation (p-EGFR Y1068, western blot) in PC9 cells; format: cell-based; conditions: 3 h incubation, densitometry of western blots
# T1 construct: endogenous in cells; host or cells: PC9 (Dr Olivier Pardo, Imperial College London)
# T1 sequence (P00533 with tags, fused parts or gaps DEL746-750): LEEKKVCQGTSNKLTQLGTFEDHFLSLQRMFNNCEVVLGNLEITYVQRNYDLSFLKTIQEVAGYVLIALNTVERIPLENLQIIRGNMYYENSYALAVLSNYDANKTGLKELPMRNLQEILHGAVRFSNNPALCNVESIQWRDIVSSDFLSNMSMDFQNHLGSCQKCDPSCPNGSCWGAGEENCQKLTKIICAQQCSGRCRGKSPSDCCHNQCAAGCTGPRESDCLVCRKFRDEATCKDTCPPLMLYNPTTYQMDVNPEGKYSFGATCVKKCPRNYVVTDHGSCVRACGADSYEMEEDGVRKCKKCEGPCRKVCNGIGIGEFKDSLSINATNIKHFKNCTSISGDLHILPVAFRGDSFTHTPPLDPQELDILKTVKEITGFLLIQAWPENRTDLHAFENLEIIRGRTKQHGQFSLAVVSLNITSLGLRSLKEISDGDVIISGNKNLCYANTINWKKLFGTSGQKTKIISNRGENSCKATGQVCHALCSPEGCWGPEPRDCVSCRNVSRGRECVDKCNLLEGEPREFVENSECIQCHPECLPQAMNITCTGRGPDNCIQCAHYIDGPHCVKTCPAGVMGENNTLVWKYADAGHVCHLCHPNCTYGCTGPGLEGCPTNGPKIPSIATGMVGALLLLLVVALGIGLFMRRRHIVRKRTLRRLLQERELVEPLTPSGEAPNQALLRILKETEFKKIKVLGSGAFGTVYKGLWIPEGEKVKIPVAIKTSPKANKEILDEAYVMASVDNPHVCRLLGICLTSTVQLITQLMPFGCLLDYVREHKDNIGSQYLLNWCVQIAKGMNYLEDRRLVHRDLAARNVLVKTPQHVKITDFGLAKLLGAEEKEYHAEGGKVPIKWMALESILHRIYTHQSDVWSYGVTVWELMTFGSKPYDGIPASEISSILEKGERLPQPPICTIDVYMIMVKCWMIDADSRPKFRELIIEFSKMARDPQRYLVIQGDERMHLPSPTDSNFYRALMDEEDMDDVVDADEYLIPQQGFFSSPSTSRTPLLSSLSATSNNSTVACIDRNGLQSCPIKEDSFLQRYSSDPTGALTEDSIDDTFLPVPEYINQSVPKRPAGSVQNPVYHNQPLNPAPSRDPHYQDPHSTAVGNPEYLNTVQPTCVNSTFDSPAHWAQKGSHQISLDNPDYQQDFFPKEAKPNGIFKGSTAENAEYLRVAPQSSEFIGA
# Procedure: (§4) Affinity of the cyanoquinolines for EGFR was established by measuring their inhibition of EGFR autophosphorylation via western blot. Cells were seeded in 6 well plates and following 24 h of growth, were subject to overnight serum starvation. The cells were then treated with increasing concentrations of cyanoquinolines prepared in serum free growth media from a DMSO stock (final DMSO concentration < 1%) for 3 h at 37°C, and stimulated for receptor autophosphorylation by addition of 100 ng/mL of EGF during the last 15 minutes of drug incubation. After 3 h the cells were placed on ice, media removed and then the cells were washed two times with ice cold phosphate buffered saline (PBS). Lysates were analysed by western blot to measure changes to p-EGFR Y1068.
# (§5) Cells were collected into a microcentrifuge tube and sonicated for 30 seconds on ice. Cellular protein levels were assessed using a bicinchoninic acid (BCA) protein assay kit according to the manufacturer’s instructions (Thermo scientific). […] Samples were transferred to polyvinylidene difluoride (PVDF) membrane using Trans-Blot Turbo system BIO-RAD (Hercules, California, USA). […] The membranes were then incubated overnight with primary antibody prepared in 1% milk or 1% BSA in TBST. […] Membranes were washed a further three times for 10 minutes with TBST. […]
# [2] = target: T2, EGFR Del E746-A750/T790M (PC9ER cells) (Homo sapiens, UniProt P00533, DEL746-750/T790M); experiment: Inhibition of EGFR autophosphorylation (p-EGFR Y1068, western blot) in PC9ER cells; format: cell-based
# T2 construct: endogenous in cells; host or cells: PC9ER (Dr Olivier Pardo, Imperial College London)
# T2 sequence (P00533 with tags, fused parts or gaps DEL746-750/T790M): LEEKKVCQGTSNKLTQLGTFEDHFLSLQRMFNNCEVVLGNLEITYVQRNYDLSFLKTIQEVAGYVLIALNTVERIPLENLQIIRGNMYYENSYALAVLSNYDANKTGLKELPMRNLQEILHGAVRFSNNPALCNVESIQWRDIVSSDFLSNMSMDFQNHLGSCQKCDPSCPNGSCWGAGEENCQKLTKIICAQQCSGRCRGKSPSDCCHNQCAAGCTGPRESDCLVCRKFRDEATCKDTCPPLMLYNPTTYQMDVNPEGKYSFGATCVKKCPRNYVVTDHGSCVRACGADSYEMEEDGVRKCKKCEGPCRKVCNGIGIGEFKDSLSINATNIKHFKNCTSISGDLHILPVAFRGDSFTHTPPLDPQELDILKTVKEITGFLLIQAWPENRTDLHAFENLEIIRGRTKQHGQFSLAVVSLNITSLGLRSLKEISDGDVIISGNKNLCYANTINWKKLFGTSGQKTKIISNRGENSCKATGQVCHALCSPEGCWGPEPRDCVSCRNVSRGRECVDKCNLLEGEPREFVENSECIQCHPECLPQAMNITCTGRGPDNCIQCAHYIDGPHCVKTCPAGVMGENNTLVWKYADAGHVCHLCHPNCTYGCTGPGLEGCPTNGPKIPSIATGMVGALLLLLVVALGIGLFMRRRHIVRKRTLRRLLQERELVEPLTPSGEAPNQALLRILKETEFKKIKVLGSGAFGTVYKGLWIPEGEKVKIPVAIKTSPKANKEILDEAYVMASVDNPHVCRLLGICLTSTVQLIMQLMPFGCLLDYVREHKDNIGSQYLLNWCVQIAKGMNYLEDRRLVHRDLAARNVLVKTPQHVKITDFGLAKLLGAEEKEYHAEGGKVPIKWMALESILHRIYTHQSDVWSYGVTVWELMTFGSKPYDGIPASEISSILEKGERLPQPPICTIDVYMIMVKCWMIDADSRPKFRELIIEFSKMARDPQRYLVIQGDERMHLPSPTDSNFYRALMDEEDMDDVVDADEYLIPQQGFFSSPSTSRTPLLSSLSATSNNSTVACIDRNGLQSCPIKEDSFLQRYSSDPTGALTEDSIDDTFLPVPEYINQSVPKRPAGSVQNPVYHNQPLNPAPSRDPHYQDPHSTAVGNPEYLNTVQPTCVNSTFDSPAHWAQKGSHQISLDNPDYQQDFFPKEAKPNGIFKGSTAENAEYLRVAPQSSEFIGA
# Procedure: as §4
# Cells were collected into a microcentrifuge tube and sonicated for 30 seconds on ice. Cellular protein levels were assessed using a bicinchoninic acid (BCA) protein assay kit according to the manufacturer’s instructions (Thermo scientific). […] Samples were transferred to polyvinylidene difluoride (PVDF) membrane using Trans-Blot Turbo system BIO-RAD (Hercules, California, USA). […] The membranes were then incubated overnight with primary antibody prepared in 1% milk or 1% BSA in TBST. […] Membranes were washed a further three times for 10 minutes with TBST. Blots were visualised using chemoluminescence (ECL, GE Healthcare, Little Chalfont, UK) and developed on Amersham Hyperfilm ECL (GE Healthcare). β-Actin was used as a loading control.
# EGFR L858R (H3255 cells) = target: T3, EGFR L858R (H3255 cells) (Homo sapiens, UniProt P00533, L858R); experiment: Inhibition of EGFR autophosphorylation (p-EGFR Y1068, western blot) in H3255 cells; format: cell-based; conditions: 3 h incubation, densitometry of western blots
# T3 construct: host or cells: H3255
# T3 sequence (P00533 25-1210 L858R): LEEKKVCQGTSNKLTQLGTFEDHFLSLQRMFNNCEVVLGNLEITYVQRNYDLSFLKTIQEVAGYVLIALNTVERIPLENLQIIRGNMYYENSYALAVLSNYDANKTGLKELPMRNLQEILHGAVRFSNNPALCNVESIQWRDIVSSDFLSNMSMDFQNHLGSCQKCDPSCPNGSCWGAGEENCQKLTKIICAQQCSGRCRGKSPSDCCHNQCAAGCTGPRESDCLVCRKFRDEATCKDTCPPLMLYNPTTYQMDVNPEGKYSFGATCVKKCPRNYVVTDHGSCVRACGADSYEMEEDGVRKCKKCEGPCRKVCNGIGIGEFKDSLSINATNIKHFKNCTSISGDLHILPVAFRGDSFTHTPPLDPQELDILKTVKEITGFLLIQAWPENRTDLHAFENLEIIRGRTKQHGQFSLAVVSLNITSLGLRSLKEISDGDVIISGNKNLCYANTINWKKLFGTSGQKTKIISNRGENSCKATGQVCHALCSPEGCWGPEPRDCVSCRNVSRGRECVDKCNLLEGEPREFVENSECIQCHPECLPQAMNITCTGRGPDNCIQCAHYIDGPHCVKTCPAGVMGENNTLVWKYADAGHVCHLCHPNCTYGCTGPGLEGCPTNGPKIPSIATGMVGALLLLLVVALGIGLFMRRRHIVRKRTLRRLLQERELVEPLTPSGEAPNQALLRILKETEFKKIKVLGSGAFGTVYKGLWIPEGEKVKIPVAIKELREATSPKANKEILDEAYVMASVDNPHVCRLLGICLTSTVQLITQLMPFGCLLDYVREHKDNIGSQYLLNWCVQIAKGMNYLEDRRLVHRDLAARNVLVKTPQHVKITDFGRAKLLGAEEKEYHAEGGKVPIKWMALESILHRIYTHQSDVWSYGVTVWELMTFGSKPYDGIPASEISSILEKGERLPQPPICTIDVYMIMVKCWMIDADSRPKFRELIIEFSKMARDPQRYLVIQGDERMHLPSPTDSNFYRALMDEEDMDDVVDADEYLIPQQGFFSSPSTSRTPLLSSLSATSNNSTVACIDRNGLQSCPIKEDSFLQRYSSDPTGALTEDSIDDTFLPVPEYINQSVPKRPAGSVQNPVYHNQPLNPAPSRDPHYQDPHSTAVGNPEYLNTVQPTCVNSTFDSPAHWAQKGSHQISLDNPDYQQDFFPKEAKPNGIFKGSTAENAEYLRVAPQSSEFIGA
# Procedure: as §4, §5
# [3] = target: T4, EGFR L858R/T790M (H1975 cells) (Homo sapiens, UniProt P00533, L858R/T790M); experiment: Inhibition of EGFR autophosphorylation (p-EGFR Y1068, western blot) in H1975 cells; format: cell-based; conditions: 3 h incubation, densitometry of western blots
# T4 construct: host or cells: H1975
# T4 sequence (P00533 25-1210 T790M/L858R): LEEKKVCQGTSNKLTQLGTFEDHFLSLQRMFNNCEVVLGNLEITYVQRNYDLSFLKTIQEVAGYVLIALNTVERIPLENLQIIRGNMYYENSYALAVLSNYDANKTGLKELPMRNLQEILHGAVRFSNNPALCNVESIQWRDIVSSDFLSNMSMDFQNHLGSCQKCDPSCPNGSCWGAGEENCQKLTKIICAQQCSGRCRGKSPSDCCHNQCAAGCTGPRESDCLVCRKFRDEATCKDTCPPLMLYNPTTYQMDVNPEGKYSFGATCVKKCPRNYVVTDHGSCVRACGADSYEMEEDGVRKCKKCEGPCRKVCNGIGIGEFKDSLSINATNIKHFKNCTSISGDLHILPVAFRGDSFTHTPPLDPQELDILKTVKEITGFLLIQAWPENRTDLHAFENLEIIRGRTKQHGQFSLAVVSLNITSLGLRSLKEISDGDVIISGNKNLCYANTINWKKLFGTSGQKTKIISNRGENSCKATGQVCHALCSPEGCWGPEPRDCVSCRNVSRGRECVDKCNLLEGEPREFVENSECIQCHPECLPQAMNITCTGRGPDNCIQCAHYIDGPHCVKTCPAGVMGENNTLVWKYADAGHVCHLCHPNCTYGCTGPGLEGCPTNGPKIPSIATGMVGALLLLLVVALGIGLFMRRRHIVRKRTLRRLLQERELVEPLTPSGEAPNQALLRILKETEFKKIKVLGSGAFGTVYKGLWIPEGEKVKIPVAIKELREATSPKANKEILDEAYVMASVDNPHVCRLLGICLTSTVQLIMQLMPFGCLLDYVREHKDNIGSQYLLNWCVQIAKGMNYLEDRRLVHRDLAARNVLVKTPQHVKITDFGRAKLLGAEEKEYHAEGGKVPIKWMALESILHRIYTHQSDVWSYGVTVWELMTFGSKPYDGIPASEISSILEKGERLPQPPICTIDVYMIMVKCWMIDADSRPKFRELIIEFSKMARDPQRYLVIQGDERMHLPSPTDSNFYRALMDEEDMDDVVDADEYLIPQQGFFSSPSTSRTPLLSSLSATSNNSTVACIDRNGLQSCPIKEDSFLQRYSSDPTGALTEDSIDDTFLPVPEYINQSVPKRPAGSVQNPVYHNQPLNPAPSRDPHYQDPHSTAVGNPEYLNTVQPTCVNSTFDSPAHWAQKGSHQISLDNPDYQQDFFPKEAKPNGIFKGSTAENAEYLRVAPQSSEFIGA
# Procedure: as §4, §5
# EGFR = test system: EGFR; set-up: method as in PMID 20797871, PMID 24307532; conditions: cell-free; read-out: IC50 for inhibition of cell-free EGFR phosphorylation; cited from earlier work
# PC9 and PC9ER cells = experiment: Cell uptake assay in PC9 versus PC9ER cells; format: cell-based; conditions: 1 h incubation
# Procedure: (§6) [^18F]FED6 and [^18F]FED20 were synthesised as previously reported. To increase specific radioactivity of [^18F]FED20, we modified the synthesis by decreasing the amount of alkyne precursor from 1 mg down to 0.5 mg. While this had the desired effect of increasing the specific activity from 7.3 GBq/μmol up to 52 GBq/μmol, the conversion of the alkyne to the triazole product dropped from > 95% down to 45%. Cells were seeded in 6 well plates and [^18F]FED6 (0.22 MBq) or [^18F]FED20 (0.55 MBq or 0.74 MBq) added to each well and incubated at 37°C for 1 h. Media were then removed and cells were washed twice with PBS. The cells were trypsinised and centrifuged for 3 minutes at 2000 rpm to obtain a pellet. The cell pellet was washed once with PBS and resuspended in 200 μL of RIPA buffer. Cell lysates were transferred to gamma counting tubes and the radioactivity in the pellet was measured on a Packard Cobra II gamma counter, (Perkin-Elmer, Waltham, Massachusetts, USA). Protein concentrations of samples were evaluated using Pierce® BCA Protein Assay Kit (Thermo Scientific, Waltham, Massachusetts, USA). Data were expressed as background- and decay-corrected counts per minute (CCPMA) per μg of cellular protein.
# cells = experiment: Cell uptake assay, overall magnitude of uptake; format: cell-based
# Procedure: as §6
SMILES,efflux ratio at 120 min (Caco2 transwell assay),efflux (permeability) ratio after pre-treatment with zosuquidar (caco2 cells),IC50 [1],"IC50 ([2]; 3 h incubation, densitometry of western blots)",fold higher IC50 (p-EGFR) in PC9ER compared to PC9 ([2]; PC9ER versus isogenic PC9),IC50 (EGFR L858R (H3255 cells)),IC50 [3],IC50 (EGFR),fold higher uptake in PC9 compared to PC9ER cells (PC9 and PC9ER cells),fold lower magnitude of uptake than [^18F]FED6 (cells)
"CCOc1cc2ncc(C#N)c(Nc3ccc(F)c(Cl)c3)c2cc1NC(=O)/C=C/CNCc1cn([C@@H]2OC(CO)[C@@H](O)C(O)C2F)nn1 (stereo partly drawn) [FED20, (2E)-N-{4-[(3-chloro-4-fluorophenyl)amino]-3-cyano-7-ethoxyquinolin-6-yl}-4-[({1-[(2R,5S)-3-fluoro-4,5-dihydroxy-6-(hydroxymethyl)oxan-2-yl]-1H-1,2,3-triazol-4-yl}methyl)amino]but-2-enamide]",1.3,did not have any effect,0.3 µM,0.7 µM,2 fold,0.3 µM,7.1 µM,0.0045 µM,–,–
"CCOc1cc2ncc(C#N)c(Nc3ccc(F)c(Cl)c3)c2cc1NC(=O)/C=C/CNCc1cn([C@@H]2OC(CO)[C@@H](O)C(O)C2[18F])nn1 (stereo partly drawn) [[^18F]FED20, [^18F](2E)-N-{4-[(3-chloro-4-fluorophenyl)amino]-3-cyano-7-ethoxyquinolin-6-yl}-4-[({1-[(2R,5S)-3-fluoro-4,5-dihydroxy-6-(hydroxymethyl)oxan-2-yl]-1H-1,2,3-triazol-4-yl}methyl)amino]but-2-enamide]",–,–,–,–,–,–,–,–,2 fold,> 5 fold
